Values quoted from earlier work, collected in patent US20130347140A1, “High Rebaudioside-A Plant and Methods of Producing the Same and Uses Thereof” (priority 2010, published 2013).

Details: vs sugar

Row | Compound | sweetness, × of sugar
1 | C=C1C[C@@]23CC[C@H]4[C@@](C)(CCC[C@@]4(C)C(=O)O[C@@H]4O[C@H](CO)[C@@H](O)[C@H](O)[C@H]4O)[C@@H]2CC[C@]1(O[C@@H]1O[C@H](CO)[C@@H](O)[C@H](O[C@@H]2O[C@H](CO)[C@@H](O)[C@H](O)[C@H]2O)[C@H]1O[C@@H]1O[C@H](CO)[C@@H](O)[C@H](O)[C@H]1O)C3 [Rebaudioside A] | 350-450 ×
2 | C=C1C[C@@]23CC[C@H]4[C@@](C)(CCC[C@@]4(C)C(=O)O[C@@H]4O[C@H](CO)[C@@H](O)[C@H](O)[C@H]4O)[C@@H]2CC[C@]1(O[C@@H]1O[C@H](CO)[C@@H](O)[C@H](O)[C@H]1O[C@@H]1O[C@H](CO)[C@@H](O)[C@H](O)[C@H]1O)C3 [Stevioside] | 250-300 ×
